{
  "source": "ChEMBL document CHEMBL4257547",
  "about": "“Chemical modulation of transcription factors” (Medchemcomm, 2018)",
  "key": {"[1]": {"biological_target": "Mitogen-activated protein kinase kinase kinase 14 (Homo sapiens, UniProt Q99558)", "sequence (Q99558 whole entry)": "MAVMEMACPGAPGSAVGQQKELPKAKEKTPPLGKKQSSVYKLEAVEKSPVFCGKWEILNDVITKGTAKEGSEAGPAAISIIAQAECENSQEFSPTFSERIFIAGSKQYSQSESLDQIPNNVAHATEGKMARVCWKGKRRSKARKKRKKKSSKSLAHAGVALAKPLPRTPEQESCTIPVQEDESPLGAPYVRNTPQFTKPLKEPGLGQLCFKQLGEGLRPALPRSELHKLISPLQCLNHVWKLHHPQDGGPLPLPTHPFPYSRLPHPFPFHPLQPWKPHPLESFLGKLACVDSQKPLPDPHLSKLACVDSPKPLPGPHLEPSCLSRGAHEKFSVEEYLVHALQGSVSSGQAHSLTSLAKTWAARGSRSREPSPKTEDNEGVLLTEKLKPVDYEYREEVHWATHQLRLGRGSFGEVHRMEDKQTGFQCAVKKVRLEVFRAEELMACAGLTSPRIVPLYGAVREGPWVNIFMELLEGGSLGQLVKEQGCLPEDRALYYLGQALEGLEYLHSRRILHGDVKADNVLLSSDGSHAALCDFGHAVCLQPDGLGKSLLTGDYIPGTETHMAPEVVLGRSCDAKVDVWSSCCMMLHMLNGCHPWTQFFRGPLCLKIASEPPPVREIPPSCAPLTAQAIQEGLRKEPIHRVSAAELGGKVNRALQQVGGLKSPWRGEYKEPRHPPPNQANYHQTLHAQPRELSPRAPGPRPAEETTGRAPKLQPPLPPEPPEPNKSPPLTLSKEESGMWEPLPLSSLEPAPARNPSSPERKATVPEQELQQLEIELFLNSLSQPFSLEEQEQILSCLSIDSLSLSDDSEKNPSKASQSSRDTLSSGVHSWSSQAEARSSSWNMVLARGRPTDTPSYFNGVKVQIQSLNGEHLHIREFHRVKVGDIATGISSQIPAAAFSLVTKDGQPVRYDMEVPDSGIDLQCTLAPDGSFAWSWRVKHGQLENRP", "experiment": "Inhibition of NIK (unknown origin) by HTRF method"}, "B16-F10": {"test_system": "B16-F10", "experiment": "Cytotoxicity against mouse B16F10 cells assessed as decrease in cell viability after 24 hrs by MTT assay", "assay_type": "functional, cell-based", "conditions": "B16-F10, 24 h"}, "Homo sapiens": {"species": "Homo sapiens", "experiment": "Selectivity ratio of IC50 for inhibition of recombinant His6-tagged human Max homodimer/HEX-tagged double-stranded oligonucleotide complex formation to IC50 for inhibition of recombinant His6-tagged bHLH-LZ domain of human Myc/His6-tagged human Max/HEX-tagged double-stranded oligonucleotide complex formation"}, "[2]": {"biological_target": "Bromodomain-containing protein 4 (Homo sapiens, UniProt O60885)", "experiment": "Inhibition of human His-tagged BRD4 expressed in Escherichia coli BL21(DE3)-R3-pRARE2 cells preincubated for 30 mins followed by biotinylated acetyl-histone addition and measured after 30 mins by AlphaScreen method"}, "[3]": {"experiment": "Protein binding in mouse plasma after 4 hrs by rapid equilibrium dialysis method", "assay_type": "ADME, cell-free", "conditions": "read-out: PPB"}, "[4]": {"experiment": "Inhibition of [32P]-labeled CREB KID (unknown origin) binding to GST-fused mouse CBP KIX domain preincubated with GST-fused CBP for 15 mins followed by CREB addition and measured after 30 mins by SDS-gel electrophoresis/autoradiographic method", "design": "species or system Homo sapiens"}},
  "data": [
    {"smiles": "C[C@](O)(C#Cc1ccc2ncc(-c3nc(N)ncc3Cl)n2c1)c1nccs1", "values": [
      {"measurement": "Ki", "setting": "[1]", "value": 0.3, "unit": "nM"}
    ]},
    {"smiles": "CC(C)(O)/C=C/C(=O)[C@@](C)(O)[C@H]1C(O)C[C@@]2(C)[C@@H]3CC=C4[C@@H](C=C(O)C(=O)C4(C)C)[C@]3(C)CC[C@]12C", "note": "(some centres not stated)", "values": [
      {"measurement": "IC50", "setting": "B16-F10", "value": 10000, "unit": "nM"}
    ]},
    {"smiles": "COC(=O)c1ccc(Nc2ccc([N+](=O)[O-])c3nonc23)c(-c2ccc(C)cc2)c1", "values": [
      {"measurement": "Ratio IC50", "setting": "Homo sapiens", "value": 2}
    ]},
    {"smiles": "Cc1nnn2c1-c1ccc(-c3cc[nH]n3)cc1C(c1ccc(Cl)cc1)=NC2", "values": [
      {"measurement": "IC50", "setting": "[2]", "value": 2, "unit": "nM"}
    ]},
    {"smiles": "Cc1nnn2c1-c1ccc(-c3ccc(N)nc3)cc1C(c1ccc(Cl)cc1)=NC2", "values": [
      {"measurement": "IC50", "setting": "[2]", "value": 6, "unit": "nM"}
    ]},
    {"smiles": "COc1ccc(C2=Nn3c(nnc3-c3cc(-c4ccc(Cl)cc4)n[nH]3)SC2C)cc1", "note": "(configuration not stated)", "values": [
      {"measurement": "fraction unbound at 4 h", "setting": "[3]", "value": "< 0.001"}
    ]},
    {"smiles": "O=C(Nc1ccc(Cl)cc1)c1cc2ccccc2cc1OP(=O)(O)O", "values": [
      {"measurement": "IC50", "setting": "[4]", "value": 90000, "unit": "nM"}
    ]}
  ]
}
